Measurements: article PMC5449446, “Metabolic Value Chemoattractants Are Preferentially Recognized at Broad Ligand Range Chemoreceptor of Pseudomonas putida KT2440” (Frontiers in Microbiology, 2017)

Tests used:
[1] = target: McpU; design: method as in ref (3) (a number printed in a supplementary file, which may have a reference list of its own: not looked up in the article's list); conditions: ITC, purified recombinant LBD; ref (3); cited from earlier work
[2] = target: McpA; design: method as in ref (3) (a number printed in a supplementary file, which may have a reference list of its own: not looked up in the article's list); conditions: ITC, purified recombinant LBD; ref (3); cited from earlier work
[3] = target: T1, PcaY_PP-LBD (Pseudomonas putida, UniProt Q88JK6); experiment: biochemical; format: binding, Pseudomonas putida KT2440; conditions: for KD: ITC at 25°C, 25 μM protein, One Binding Site model, means and SD of three experiments
T1 construct: His-tag (from the pET28b vector; inferred from NdeI/BamHI cloning and HisTrap purification) (N); made in house; host or cells: Escherichia coli BL21 (DE3)
T1 sequence (Q88JK6 44-196): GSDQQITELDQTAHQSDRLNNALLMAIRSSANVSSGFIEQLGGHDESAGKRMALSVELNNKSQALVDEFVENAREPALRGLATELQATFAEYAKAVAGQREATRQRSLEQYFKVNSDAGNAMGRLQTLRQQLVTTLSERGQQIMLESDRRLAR
Experimental: Experiments were carried out at 25°C using a VP-ITC titration calorimeter (Microcal Inc., Northampton, Massachusetts). […] Obtained data were corrected with the heat changes measured for the injection of ligand into buffer. Data were normalized with the protein concentration (Bradford assay) and fitted with the “One Binding Site” model of the MicroCal version of the ORIGIN 7.0 software (OriginLab Corporation, Northampton, MA, United States), leaving all parameters floating.

[4] = system: Pseudomonas putida KT2440; experiment: Quantitative capillary chemotaxis assay; format: cell-based; conditions: 30 min, wild type KT2440
Experimental: Subsequently, the cells were re-suspended in the same buffer, adjusted to an OD660 of 0.15 and 230 μl aliquots of this bacterial culture were placed into 96-well plates. For the quantitative assays, one-microliter capillary tubes (Microcaps, Drummond Scientific, Ref. […]) were heat-sealed at one end and filled with either the chemotaxis buffer (negative control) or chemotaxis buffer containing the chemoeffector. The capillaries were immersed into the bacterial suspension and incubated for 30 min at room temperature. Capillaries were subsequently removed from the bacterial suspension, rinsed with sterile water and the content expelled into 1 ml of M9 medium. Serial dilutions were plated onto LB medium (containing the appropriate antibiotics) and the number of colony forming units was determined. In all cases, data were corrected with the number of cells that swam into buffer containing capillaries.

[5] = target: McpH; design: method as in ref (2) (a number printed in a supplementary file, which may have a reference list of its own: not looked up in the article's list); conditions: ITC, purified recombinant LBD; ref (2); cited from earlier work
[6] = target: T1, PcaY_PP-LBD; design: species or system Pseudomonas putida KT2440; conditions: saturating ligand (400 μM), 10°C
Experimental: Experiments were performed in a Beckman Coulter Optima XL-A analytical ultracentrifuge (Beckman-Coulter, Palo Alto, CA, United States) equipped with UV-visible absorbance detection system, using an An50Ti 8-hole rotor, 12 mm path-length charcoal-filled epon double-sector centerpieces. The sedimentation velocity (SV) experiments were carried out at a rotor speed of 40,000 rpm and 10°C using 400 μl samples in analysis buffer. […] Analysis buffer with or without ligands was used as reference. […] A least squares boundary modeling of the SV data was used to calculate sedimentation coefficient distributions with the size-distribution c(s) method ([Schuck, 2000]) implemented in the SEDFIT v11.71 software. […] The multi-speed sedimentation equilibrium experiments were carried out at 10°C and 12,000, 14,000, and 18,000 rpm until equilibrium was reached. […] Generally two wavelengths were used per sample.

[7] = system: P. putida KT2440; experiment: Growth in M9 minimal medium with ligand as sole C-source; format: cell-based, Pseudomonas putida KT2440; conditions: 10 mM (2 mM for poorly soluble) ligand
Experimental: P. putida KT2440R was grown in the same medium supplemented with rifampicin (10 μg ml^-1). […] When necessary, the pH of the medium was adjusted to 7.0 prior to inoculation. Bacterial growth rates were monitored by measuring the OD660 until cultures reached the stationary phase. The growth rate during the exponential growth (m) was calculated according to m = (LnOD2-LnOD1).(t2-t1)^-1, where OD2/t2 and OD1/t1 correspond to the OD660/time at the end and the beginning of the time interval. The generation time (G) was defined by G = Ln2 μ^-1. […] Normalized growth yield per carbon source after 24 h was determined applying correlation factors between cell dry weight and OD660 determined in batch cultures and assuming that all the carbon source was consumed during growth. Data were fitted by linear least squares regression or submitted to the chi-squared test with Yates correction using in both cases the Graph Pad Prism v7.02 software.

[8] = target: McpP; design: method as in ref (6) (a number printed in a supplementary file, which may have a reference list of its own: not looked up in the article's list); conditions: ITC, purified recombinant LBD; ref (6); cited from earlier work

For `NCCCCNCCCN` [Spermidine], the Kd [1] is listed as 4.5 µM.

For `N[C@@H](Cc1ccc(O)cc1)C(=O)O` [L-Tyr], the Kd [2] is listed as 12.1 µM.

For `O=C(O)c1ccc([N+](=O)[O-])cc1` [4-NBA, 4-Nitrobenzoate], the Kd [3] was 50 µM, the “∆G” value ([3]; ITC) was -5.86 ± 0.06 kcal/mol and the “∆H” value ([3]; ITC) was -13.8 ± 1.2 kcal/mol.

In the case of `Nc1ccc(C(=O)O)cc1` [4-ABA, 4-aminobenzoate], the Kd [3] is reported as 98 µM, the “∆G” value ([3]; ITC) is reported as -5.46 ± 0.12 kcal/mol and the “∆H” value ([3]; ITC) is reported as -11.0 ± 0.4 kcal/mol. For the same compound, the chemotactic response [4] was “much weaker”.

For `N[C@@H](Cc1ccccc1)C(=O)O` [L-Phe], the Kd [2] is given as 2.3 µM.

In the case of `Nc1nc2nc[nH]c2c(=O)[nH]1` [Guanine], the Kd [5] is given as 4.3 µM.

For `Nc1ccccc1C(=O)O` [2-ABA, 2-Aminobenzoate], the Kd [3] was 89 µM, the “∆G” value ([3]; ITC) was -5.52 ± 0.07 kcal/mol and the “∆H” value ([3]; ITC) was -18.0 ± 1.8 kcal/mol.

For `O=c1[nH]cnc2nc[nH]c12` [Hypoxanthine], the Kd [5] is given as 3.3 µM.

In the case of `O=C(O)C1=CC(O)C(O)C(O)C1` (stereo not drawn) [Shikimate, shikimate], the Kd [3] is reported as 4.4 µM, the “∆G” value ([3]; ITC) is reported as -7.30 ± 0.1 kcal/mol and the “∆H” value ([3]; ITC) is reported as -16.6 ± 1.1 kcal/mol. For the same compound, the “sedimentation coefficient s20,w of PcaY_PP-LBD in presence of ligand” value [6] was 3.1 S and the chemotactic response [4] was “very strong responses”.

For `NC(=O)CC[C@H](N)C(=O)O` [L-Gln], the Kd [2] is given as 5.5 µM.

For `C[C@H](N)C(=O)O` [L-Ala], the Kd [2] is given as 13 µM.

With `O=C(O)c1cccc(Cl)c1` [3-CBA, 3-chlorobenzoate] the Kd [3] was 34 µM, the “∆G” value ([3]; ITC) was -6.09 ± 0.03 kcal/mol and the “∆H” value ([3]; ITC) was -13.2 ± 0.3 kcal/mol.

For `O=C(O)c1ccc(O)cc1` [4-HBA, 4-hydroxybenzoate], the “capacity to support growth as sole carbon source” value (shortened to “capacity to support growth”) [7] was “supported bacterial growth”, the Kd [3] was 7.2 µM and the “increase in affinity as compared to benzoate” value ([3]; ITC) was “around 12 fold”. The “∆G” value ([3]; ITC) was -7.01 ± 0.08 kcal/mol and the “∆H” value ([3]; ITC) was -33.2 ± 1.4 kcal/mol.

For `CSCC[C@H](N)C(=O)O` [L-Met], the Kd [2] is given as 5.8 µM.

In the case of `O=C(O)c1ccc(O)c(O)c1` [Protocatechuate, protocatechuate], the “capacity to support growth” value [7] is reported as “supported bacterial growth”, the Kd [3] is reported as 6.4 µM and the “∆G” value ([3]; ITC) is reported as -7.08 ± 0.04 kcal/mol. For the same compound, the “∆H” value ([3]; ITC) was -22.9 ± 1.2 kcal/mol and the chemotactic response [4] was “much weaker”.

In the case of `Nc1ncnc2[nH]cnc12` [Adenine], the Kd [5] is listed as 2.4 µM.

For `CC(=O)C(=O)O` [Pyruvate], the Kd [8] is given as 39 µM.

With `O=C(O)CC(O)C(=O)O` (stereo not drawn) [Malate, malate] the KD [3] was “did not show any binding”.

For `CCC(=O)O` [Propionate], the Kd [8] is given as 34 µM.

With `O=C(O)[C@]1(O)C[C@@H](O)[C@@H](O)[C@H](O)C1` [Quinate, quinate] the “capacity to support growth” value [7] was “supported bacterial growth”, the Kd [3] was 3.7 µM and the “∆G” value ([3]; ITC) was -7.40 ± 0.02 kcal/mol. For the same compound, the “∆H” value ([3]; ITC) was -13.2 ± 0.4 kcal/mol, the “sedimentation coefficient s20,w of PcaY_PP-LBD in presence of ligand” value [6] was 3.1 S and the chemotactic response [4] was “very strong responses”.

With `O=C(O)c1ccccc1` [Benzoate, benzoate] the “capacity to support growth” value [7] was “supported bacterial growth”, the Kd [3] was 90 ± 8 µM and the “∆G” value ([3]; ITC) was -5.51 ± 0.06 kcal/mol. The “∆H” value ([3]; ITC) was -13.3 ± 0.5 kcal/mol and the chemotactic response [4] was “much weaker”.

For `c1ncc2nc[nH]c2n1` [Purine], the Kd [5] is given as 2.4 µM.

In the case of `Cc1cccc(C(=O)O)c1` [3-MBA, 3-Methylbenzoate], the Kd [3] is reported as 32 µM, the “∆G” value ([3]; ITC) is reported as -6.12 ± 0.04 kcal/mol and the “∆H” value ([3]; ITC) is reported as -21.9 ± 1.1 kcal/mol.

With `O=Cc1ccc(O)cc1` [4-Hbenzaldehyde, 4-hydroxybenzaldehyde] the KD [3] was “No Binding” and the KD ([3]; listed as 4-hydroxybenzaldehyde) was “devoid of binding”.

For `O=C(O)c1ccccc1[N+](=O)[O-]` [2-NBA], the KD [3] was “No binding”.

For `Cc1ccc(C(=O)O)cc1` [4-MBA, 4-Methylbenzoate], the Kd [3] was 41 µM, the “∆G” value ([3]; ITC) was -5.97 ± 0.12 kcal/mol and the “∆H” value ([3]; ITC) was -13.2 ± 0.9 kcal/mol.

In the case of `C[C@H](O)C(=O)O` [L-lactate], the Kd [8] is listed as 107 µM.

In the case of `NCC(=O)O` [Gly], the Kd [2] is listed as 35 µM.

In the case of `N=C(N)NCCC[C@H](N)C(=O)O` [L-Arg], the Kd [2] is given as 1.2 µM.

In the case of `O=C(O)c1cccc([N+](=O)[O-])c1` [3-NBA, 3-Nitrobenzoate], the Kd [3] is reported as 61 µM, the “∆G” value ([3]; ITC) is reported as -5.74 ± 0.06 kcal/mol and the “∆H” value ([3]; ITC) is reported as -17.5 ± 0.3 kcal/mol.

In the case of `Nc1cccc(C(=O)O)c1` [3-ABA, 3-aminobenzoate], the Kd [3] is reported as 138 µM, the “∆G” value ([3]; ITC) is reported as -5.26 ± 0.07 kcal/mol and the “∆H” value ([3]; ITC) is reported as -16.4 ± 1.2 kcal/mol.

For `CC(C)[C@H](N)C(=O)O` [L-Val], the Kd [2] is listed as 373 µM.

For `N[C@@H](CS)C(=O)O` [L-Cys], the Kd [2] is listed as 0.6 µM.

In the case of `COc1cc(C=O)ccc1O` [Vanillin, vanillin], the KD [3] is reported as “No binding” and the KD ([3]; listed as vanillin) is reported as “absence of binding”.

In the case of `O=C(O)c1ccccc1O` [2-HBA, 2-hydroxybenzoate], the Kd [3] is reported as 24 µM, the “∆G” value ([3]; ITC) is reported as -6.30 ± 0.03 kcal/mol and the “∆H” value ([3]; ITC) is reported as -21.0 ± 0.6 kcal/mol. The chemotactic response [4] was “much weaker”.

In the case of `O=C(O)c1ccccc1Cl` [2-CBA, 2-chlorobenzoate], the KD [3] is reported as “No binding” and the chemotactic response [4] is reported as “did not induce a chemotactic response”.

In the case of `O=c1[nH]c(=O)c2[nH]c(=O)[nH]c2[nH]1` [Uric acid], the Kd [5] is given as 1.3 µM.

For `O=C(O)c1cccc(O)c1` [3-HBA, 3-hydroxybenzoate], the KD [3] was “No Binding”.

With `COc1cc(C(=O)O)ccc1O` [Vanillate, vanillate] the Kd [3] was 11 µM, the “∆G” value ([3]; ITC) was -6.70 ± 0.03 kcal/mol and the “∆H” value ([3]; ITC) was -12.8 ± 1.7 kcal/mol.

In the case of `NCCCCCN` [Cadaverine], the Kd [1] is listed as 22 µM.

For `CC[C@H](C)[C@H](N)C(=O)O` [L-Ile], the Kd [2] is given as 85 µM.

For `O=C(O)C1=CC(=O)C(O)C(O)C1` (stereo not drawn) [3-Dehydroshikimate, 3-dehydroshikimate], the “capacity to support growth” value [7] was “supported bacterial growth”, the Kd [3] was 6 µM and the “∆G” value ([3]; ITC) was -7.11 ± 0.03 kcal/mol. The “∆H” value ([3]; ITC) was -19.9 ± 0.3 kcal/mol.

In the case of `O=c1[nH]c(=O)c2nc[nH]c2[nH]1` [Xanthine], the Kd [5] is listed as 2.7 µM.

In the case of `O=C(O)CCC(=O)O` [Succinate, succinate], the KD [3] is reported as “did not show any binding”.

For `N[C@@H](CO)C(=O)O` [L-Ser], the Kd [2] is given as 43 µM.

With `Cc1ccccc1C(=O)O` [2-MBA] the KD [3] was “No binding”.

In the case of `O=C(O)CCCCC(=O)O` [Adipate, adipate], the KD [3] is reported as “No binding” and the KD ([3]; listed as adipate) is reported as “No binding heats”.

For `NCCCCN` [Putrescine], the Kd [1] is listed as 2 µM.

In the case of `NC(=O)C[C@H](N)C(=O)O` [L-Asn], the Kd [2] is listed as 4.3 µM.
